Laboratory results: publication PMC7022493, “Kinetic, Thermodynamic, and Crystallographic Studies of 2-Triazolylthioacetamides as Verona Integron-Encoded Metallo-β-Lactamase 2 (VIM-2) Inhibitor” (Biomolecules, 2020)

Columns and labels:
VIM-2 [1] = biological target: T1, VIM-2 (Pseudomonas aeruginosa, UniProt Q9K2N0); assay: VIM-2 enzyme-inhibition assay with nitrocefin as substrate (UV-Vis, 482 nm); assay type: biochemical, P. aeruginosa
T1 construct: made in house; host or cells: E. coli BL21 (DE3), plasmid pET24a-VIM-2
Protocol: The VIM-2 was overexpressed and purified as previously described. In brief, E. coli BL21 (DE3) cells were transelected with plasmid pET24a-VIM-2. A 10 mL overnight culture of these cells in lysogeny broth (LB) was used to inoculate of M9 media containing kanamycin (25 μg/mL). The cells were allowed to grow at 37 °C with shaking until the optical density at 600 nm (OD600) reached 0.6–0.8. VIM-2 expression was induced with 1 mM IPTG at 25 °C overnight. Cells were collected by centrifugation and lysed by sonication. The supernatant collected by centrifugation was dialyzed three times at 4 °C and loaded on a Q-Sepharose column. Bound protein was eluted with a 0–500 mM NaCl gradient in 30 mM Tris, pH 7.6. The further purification of crude VIM-2 was run though a G75 column (GE Healthcare, Boston, MA, USA) and eluted with 20 mM Tris, pH 7.6, containing 150 mM NaCl, and 5% β-mercaptoethanol. Enzyme purity was analyzed by SDS-PAGE, and determined the concentration by measuring the absorption at 280 nm (extinction co-efficient: 39,000 M^−1cm^−1) using the Nanodrop 2000 c spectrophotometer (Thermo Scientific, Waltham, MA, USA).
The percent inhibition (inhibition%, enzyme activity without inhibitor minus residual activity with 100 μM inhibitor) and IC50 (the inhibitor concentrations causing 50% decrease of enzyme activity) values were measured using a previously established enzyme-inhibition assay on an Agilent UV8453 UV−Vis spectrophotometer using 60 μM nitrocefin (monitoring at 482 nm) as a substrate. The 2-triazolylthioacetamides 1a–j, 2a–e, and 3a–e were dissolved with DMSO and diluted with ddH2O. The VIM-2 and nitrocefin were prepared with a Tris buffer (30 mM, pH 7.6). The final concentration of DMSO inhibition experiments was below 1%. The IC50 values were determined in triplicate against VIM-2, where the inhibitor concentrations were varied between 0 and 120 µM, and final concentrations VIM-2 was 0.6 nM. The tested VIM-2 and inhibitors were premixed at room temperature (30 mM Tris, pH 7.6), and then the substrate in the same buffer was added to the mixture, the initial rates of nitrocefin hydrolysis were recorded at each inhibitor concentration. The percentage inhibition was calculated by the equation inhibition% = 1 − (Vi/V0) and IC50 values were calculated by plotting the average inhibition% against inhibitor concentration and fitting of the data.
To evaluate 2-triazolylthioactamides, the VIM-2 was expressed and purified as previously described. The steady-state kinetic assays were conducted on an Agilent UV8453 spectrometer using nitrocefin (60 µM) as a substrate and monitoring its hydrolytic product at 482 nm.
IC50 values of 1a–j against VIM-2 were measured in 30 mM Tris, pH 7.6, in which the concentrations of inhibitors were varied between 0 and 120 µM. […] Moreover, clogP values of 1a–j (Table 1), as predicted by the ALOGPS 2.1 program, are in the range 1.88–3.05, which are similar with many marked antibacterial agents.

VIM-2 [2] = biological target: T1, VIM-2; assay: Binding affinity to VIM-2 by isothermal titration calorimetry (ITC); parameters: species or system P. aeruginosa; details: for TΔS / ΔH / Ka / ΔG: ITC, 298 K, Tris-HCl; for TΔS / ΔH / ΔG: pH 7.6; for Ka: pH 7.6, single binding site model; for ΔG: ∆G = ∆H − T∆S
Protocol: Binding affinity measurements were performed by ITC on a Malvern MicroCal-ITC200 at 298 K. The syringe stirring rate was 750 rpm and kept constant. A stock of VIM-2 and inhibitor (1b, 1c, and 1h) were prepared in Tris buffer (30 mM, pH 7.6) with 1% DMSO. The concentration of VIM-2 was 100 μM. Before the injections, the solution of enzyme and inhibitor were degassed by centrifugation (32,583× g, 5 min), respectively. Then, the prepared VIM-2 solution was transferred into the sample cell (210 μL), and the inhibitor (1 mM) in the syringe was titrated into the sample cell by 18 injections (0.5 μL for the first injection and 1.5 μL for the other 17 injections) with 120 s intervals per injection. The heat of dilution for the inhibitor was determined in the control experiment and subtracted from the integrated data before curve fitting. The data were fitted and analyzed with single binding sites using Origin 7.0 software, provided with the instrument.
To investigate the binding affinity of 2-triazolylthioactamides to VIM-2, 1b, 1c, and 1h as enzyme inhibitors were selected based on the inhibitory activity. […] After the best fitting by the single binding site model, the affinity constant (Ka), corresponding dissociation constant (Kd), and thermodynamic parameters (∆H, ΔS, and ΔG) were determined and listed in Table 3.

E. coli DH10B-VIM-2 = assay: MIC by broth micro-dilution, cefazolin alone or with inhibitors, E. coli producing VIM-2; assay type: cell-based; details: for Decrease in MIC of cefazolin: inhibitor 128 μg/mL
Protocol: The minimum inhibitory concentration (MIC) of antibiotics, both alone and in the presence of enzyme inhibitors, was determined using the broth micro-dilution method. E. coli DH10B containing plasmid pBCSK-VIM-2 grown in MH medium to OD600 = 0.45 were used as inocula, after an 84-fold dilution to 1 × 10^5 CFU/mL in MH medium. Cefazolin was dissolved in MH medium to prepare 1024, 512, 256, 128, 64, 32, 16, and 8 for E. coli producing VIM-2 stock solutions, respectively. Compounds 1a–j, 2a–e, and 3a–e were dissolved in DMSO and diluted with MH media to prepare 64 µg/mL stock solutions. The 50 μL prepared stock solutions with different cefazolin concentrations were diluted with a 50 μL inhibitor stock solution, then 100 μL inoculum was added sequentially. The final concentration of both the inhibitor and cefazolin were a quarter of the stock solution concentrations.
The ability of 2-triazolylthioactamides to restore the antimicrobial activity of cefazolin against the bacteria producing VIM-2 was investigated by determining the MICs of β-lactams in the presence and absence of inhibitors (16 μg/mL). E. coli DH10B containing plasmid pBCSK-VIM-2 was used to study these inhibitors. […] Although the strains treated with a high dose of 2-triazolylthioacetamides (128 μg/mL) were still resistant, they are promising in the future.

[3] = system: E. coli cells without VIM-2; assay: Antibacterial activity (MIC) against E. coli cells without VIM-2; assay type: cell-based; details: Escherichia coli, read-out: MIC of cefazolin

O=C(CSc1nnc(-c2ccccc2C(=O)O)[nH]1)Nc1ccccc1 [Compound 1a]
IC50 (VIM-2 [1]): 40.8 ± 0.3 µM

O=C(CSc1nnc(-c2ccccc2C(=O)O)[nH]1)Nc1nc2ccccc2[nH]1 [Compound 1b]
IC50 (VIM-2 [1]): 58.6 ± 0.1 µM | Kd (VIM-2 [2]): 8.62 µM | TΔS (VIM-2 [2]): 4.26 kcal/mol | ΔH (VIM-2 [2]): -2.66 kcal/mol | Ka (VIM-2 [2]): 116000 M⁻¹ | ΔG (VIM-2 [2]): -6.92 kcal/mol | Decrease in MIC of cefazolin (E. coli DH10B-VIM-2): 16 fold

O=C(CSc1nnc(-c2ccccc2C(=O)O)[nH]1)Nc1nc2ccccc2s1 [Compound 1c]
IC50 (VIM-2 [1]): 49.1 ± 0.1 µM | Kd (VIM-2 [2]): 7.94 µM | TΔS (VIM-2 [2]): 5.34 kcal/mol | ΔH (VIM-2 [2]): -1.61 kcal/mol | Ka (VIM-2 [2]): 126000 M⁻¹ | ΔG (VIM-2 [2]): -6.95 kcal/mol | Decrease in MIC of cefazolin (E. coli DH10B-VIM-2): 16 fold

O=C(CSc1nnc(-c2ccccc2C(=O)O)[nH]1)Nc1ccc(Cl)cc1 [Compound 1d]
IC50 (VIM-2 [1]): 52.2 ± 0.5 µM

O=C(CSc1nnc(-c2ccccc2C(=O)O)[nH]1)Nc1ccc([N+](=O)[O-])cc1 [Compound 1e]
IC50 (VIM-2 [1]): 38.2 ± 0.3 µM

O=C(CSc1nnc(-c2ccccc2C(=O)O)[nH]1)NCc1ccccc1 [Compound 1f]
IC50 (VIM-2 [1]): 45.8 ± 0.2 µM

O=C(CSc1nnc(-c2ccccc2C(=O)O)[nH]1)Nc1ccccc1Cl [Compound 1g]
IC50 (VIM-2 [1]): 31.4 ± 0.4 µM | Decrease in MIC of cefazolin (E. coli DH10B-VIM-2): 32 fold

O=C(CSc1nnc(-c2ccccc2C(=O)O)[nH]1)Nc1cccc(Cl)c1 [Compound 1h]
IC50 (VIM-2 [1]): 20.6 ± 0.1 µM | Kd (VIM-2 [2]): 6.41 µM | TΔS (VIM-2 [2]): 1.98 kcal/mol | ΔH (VIM-2 [2]): -5.10 kcal/mol | Ka (VIM-2 [2]): 156000 M⁻¹ | ΔG (VIM-2 [2]): -7.08 kcal/mol | Decrease in MIC of cefazolin (E. coli DH10B-VIM-2): 32 fold

O=C(CSc1nnc(-c2ccccc2C(=O)O)[nH]1)Nc1ccccc1[N+](=O)[O-] [Compound 1i]
IC50 (VIM-2 [1]): 45.2 ± 0.1 µM

O=C(CSc1nnc(-c2ccccc2C(=O)O)[nH]1)Nc1cccc([N+](=O)[O-])c1 [Compound 1j]
IC50 (VIM-2 [1]): 57.6 ± 0.4 µM

Cc1nnc(SCC2=C(C(=O)O)N3C(=O)[C@@H](NC(=O)Cn4cnnn4)[C@H]3SC2)s1 [cefazolin, reference compound]
MIC (E. coli DH10B-VIM-2; Escherichia coli, DH10BVIM2, read-out: MIC of cefazolin): 128 µg/mL | MIC [3]: 1 µg/mL
